Assay results published in patent publication US10039753B2, “Imidazo[4,5-c]quinoline and imidazo[4,5-c][1,5]naphthyridine derivatives as LRRK2 inhibitors” (Pfizer Inc., priority 2015, dated 2018).
Counter-ions that a name gives are not always drawn.

Experiments:
[1] = biological target: T1, GST-tagged truncated LRRK2 (Homo sapiens, UniProt Q5S007); assay: LRRK2 Assay, Format 2 (Lantha Screen), WT; assay type: biochemical; settings: geometric mean of 2-4 determinations unless otherwise indicated (a: >=5; b: single determination)
T1 construct: GST-tagged truncated LRRK2 from Invitrogen (Cat # PV4874); GST; purchased Invitrogen PV4874
T1 sequence (Q5S007 970-2527 limits assumed): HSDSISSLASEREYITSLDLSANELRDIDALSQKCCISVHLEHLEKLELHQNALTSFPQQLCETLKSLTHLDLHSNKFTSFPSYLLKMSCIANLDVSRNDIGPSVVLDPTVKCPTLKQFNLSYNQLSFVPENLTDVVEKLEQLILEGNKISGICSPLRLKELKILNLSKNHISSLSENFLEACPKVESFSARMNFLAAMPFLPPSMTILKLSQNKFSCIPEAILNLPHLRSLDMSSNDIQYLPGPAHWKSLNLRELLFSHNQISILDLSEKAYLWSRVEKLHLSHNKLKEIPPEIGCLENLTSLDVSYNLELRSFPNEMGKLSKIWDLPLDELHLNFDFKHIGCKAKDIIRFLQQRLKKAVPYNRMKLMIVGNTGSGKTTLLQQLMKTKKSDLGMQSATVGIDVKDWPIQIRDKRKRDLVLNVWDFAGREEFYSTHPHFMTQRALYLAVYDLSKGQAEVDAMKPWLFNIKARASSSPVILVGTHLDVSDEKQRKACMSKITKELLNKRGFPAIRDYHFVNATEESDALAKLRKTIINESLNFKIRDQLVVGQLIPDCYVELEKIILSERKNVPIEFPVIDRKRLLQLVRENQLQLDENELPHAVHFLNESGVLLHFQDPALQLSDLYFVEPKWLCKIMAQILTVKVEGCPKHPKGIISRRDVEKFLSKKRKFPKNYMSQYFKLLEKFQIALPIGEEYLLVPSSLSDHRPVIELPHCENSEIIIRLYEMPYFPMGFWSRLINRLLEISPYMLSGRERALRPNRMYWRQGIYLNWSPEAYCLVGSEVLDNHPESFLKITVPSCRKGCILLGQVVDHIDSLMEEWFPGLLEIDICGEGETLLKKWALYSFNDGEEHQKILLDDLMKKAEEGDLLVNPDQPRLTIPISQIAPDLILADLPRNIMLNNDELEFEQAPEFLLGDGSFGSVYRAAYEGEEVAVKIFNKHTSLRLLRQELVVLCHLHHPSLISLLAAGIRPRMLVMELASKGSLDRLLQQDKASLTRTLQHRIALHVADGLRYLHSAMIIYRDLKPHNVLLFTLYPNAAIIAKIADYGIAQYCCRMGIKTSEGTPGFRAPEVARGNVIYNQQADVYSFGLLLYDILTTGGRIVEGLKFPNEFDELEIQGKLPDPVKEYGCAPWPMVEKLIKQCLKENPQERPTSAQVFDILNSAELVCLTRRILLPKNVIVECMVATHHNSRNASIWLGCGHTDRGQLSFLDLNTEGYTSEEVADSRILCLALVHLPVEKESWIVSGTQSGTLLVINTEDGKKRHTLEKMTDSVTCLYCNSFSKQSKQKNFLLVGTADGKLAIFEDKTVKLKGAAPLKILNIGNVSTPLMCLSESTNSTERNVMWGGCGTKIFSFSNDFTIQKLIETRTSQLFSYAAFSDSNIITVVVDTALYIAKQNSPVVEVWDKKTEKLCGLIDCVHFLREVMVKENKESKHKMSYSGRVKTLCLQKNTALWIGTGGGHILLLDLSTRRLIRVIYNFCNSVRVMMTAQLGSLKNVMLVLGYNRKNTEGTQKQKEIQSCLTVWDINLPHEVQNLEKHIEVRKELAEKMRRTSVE
Description: (§1) LRRK2 kinase activity was measured using Lantha Screen technology from Invitrogen. GST-tagged truncated LRRK2 from Invitrogen (Cat # PV4874) was incubated with a fluorescein-labeled peptide substrate based upon ezrin/radixin/moesin (ERM), also known as LRRKtide (Invitrogen cat # PR8976A), in the presence of a dose response of compound. Upon completion, the assay was stopped and detected with a terbium labeled anti-phospho-ERM antibody (Invitrogen, cat # PR8975A). […] Using Echo acoustic dispensing, 60 nL of compound was transferred to a low volume Corning 384-well assay plate. 3 μL of a working solution of substrate (200 nM LRRKtide, […]) prepared in assay buffer (50 mM HEPES, pH 7.5, 3 mM MgCl2, with 2 mM DTT and 0.01% Brij35 added fresh) was added to the 60 nL compound assay plate. The kinase reaction was started with […] of a working solution of LRRK2 enzyme at a concentration of […]. The final reaction concentrations were 100 nM LRRKtide, […], […] LRRK2 enzyme and a compound dose response with a top dose of 3 mM. The reaction was allowed to progress at room temperature for 30 minutes and then stopped with the addition of […] of detection buffer (20 mM Tris pH 7.6, 0.01% NP-40, 6 mM EDTA with 2 nM terbium labeled anti-phospho-ERM). After an incubation of 1 hour at room temperature, the plate was read on an Envision with an excitation wavelength of 340 nm and a reading emission at both 520 nm and 495 nm. The ratio of the 520 nm and 495 nm emission was used to analyze the data. Inhibition of mutant G2019S LRRK2 (Invitrogen cat # PV4881) was measured in the exact same method. All final concentrations of substrate ATP and enzyme were the same.

mutant G2019S LRRK2 = mutant G2019S LRRK2 (Homo sapiens, UniProt Q5S007, G2019S); assay: LRRK2 Assay, Format 2 (Lantha Screen), G2019S mutant; assay type: biochemical; parameters: purchased Invitrogen PV4881; settings: geometric mean of 2-4 determinations unless otherwise indicated (a: >=5; b: single determination); read-out: LRRK2, Format 2 G2019S IC50
mutant G2019S LRRK2, sequence (Q5S007 970-2527 G2019S limits assumed): as the sequence (Q5S007 970-2527 limits assumed) above, with G1050S counted along it
Description: as §1

Cc1cc(Cc2nc3cnc4ccc(C#N)cc4c3n2C2CCCCC2(F)F)no1 (single isomer, unassigned; ent-2) [Example C94, 1-(2,2-difluorocyclohexyl)-2-[(5-methyl-1,2-oxazol-3-yl)methyl]-1H-imidazo[4,5-c]quinoline-8-carbonitrile, ENT-2]
IC50 [1]: 21.4 nM
IC50 (mutant G2019S LRRK2): 30.5 nM

C[C@@H]1C[C@H](n2c(Cc3ccncn3)nc3cnc4ccc(C(F)(F)F)cc4c32)CCO1 [Example 178, 1-[(2R,4R)-2-methyltetrahydro-2H-pyran-4-yl]-2-(pyrimidin-4-ylmethyl)-8-(trifluoromethyl)-1H-imidazo[4,5-c]quinoline]
IC50 [1]: 5.64 nM
IC50 (mutant G2019S LRRK2): 3.32 nM

C[C@@H]1C[C@H](n2c(Cc3cn(C)cn3)nc3cnc4ccc(C#N)cc4c32)CCO1 [Example 235, 2-[(1-methyl-1H-imidazol-4-yl)methyl]-1-[(2R,4R)-2-methyltetrahydro-2H-pyran-4-yl]-1H-imidazo[4,5-c]quinoline-8-carbonitrile, formate salt]
IC50 [1]: 10.6 nM
IC50 (mutant G2019S LRRK2): 9.43 nM

C[C@@H]1C[C@H](n2c(Cc3cc(=O)n4ccccc4n3)nc3cnc4ccc(Cl)cc4c32)CCO1 [Example 164, 2-({8-chloro-1-[(2R,4R)-2-methyltetrahydro-2H-pyran-4-yl]-1H-imidazo[4,5-c]quinolin-2-yl}methyl)-4H-pyrido[1,2-a]pyrimidin-4-one, formate salt]
IC50 [1]: 5.88 nM
IC50 (mutant G2019S LRRK2): 6.18 nM

Cc1cc(Cc2nc3cnc4ccc(F)cc4c3n2[C@@H]2CCO[C@H](C)C2)no1 [Example 200, 8-fluoro-2-[(5-methyl-1,2-oxazol-3-yl)methyl]-1-[(2R,4R)-2-methyltetrahydro-2H-pyran-4-yl]-1H-imidazo[4,5-c]quinoline]
IC50 [1]: 12.4 nM
IC50 (mutant G2019S LRRK2): 14.3 nM

C[C@@H]1C[C@H](n2c(Cn3cc(C4CC4)nn3)nc3cnc4ccc(C#N)cc4c32)CCO1 [Example 125, 2-[(4-cyclopropyl-1H-1,2,3-triazol-1-yl)methyl]-1-[(2R,4R)-2-methyltetrahydro-2H-pyran-4-yl]-1H-imidazo[4,5-c]quinoline-8-carbonitrile, formate salt]
IC50 [1]: 7 nM
IC50 (mutant G2019S LRRK2): 6.19 nM

C[C@@H]1C[C@H](n2c(Cc3cnco3)nc3cnc4ccc(Cl)cc4c32)CCO1 [Example 127, 8-chloro-1-[(2R,4R)-2-methyltetrahydro-2H-pyran-4-yl]-2-(1,3-oxazol-5-ylmethyl)-1H-imidazo[4,5-c]quinoline, formate salt]
IC50 [1]: 7.02 nM
IC50 (mutant G2019S LRRK2): 8.01 nM

N#Cc1ccc2ncc3nc(Cn4cc(C(F)(F)F)cn4)n([C@@H]4CC[C@H](F)C4)c3c2c1 (single isomer, unassigned; ent-1) [Example 201, 1-(cis-3-fluorocyclopentyl)-2-{[4-(trifluoromethyl)-1H-pyrazol-1-yl]methyl}-1H-imidazo[4,5-c]quinoline-8-carbonitrile, ENT-1]
IC50 [1]: 7.47 nM
IC50 (mutant G2019S LRRK2): 11.3 nM

Cc1nc(Cc2nc3cnc4ccc(C#N)cc4c3n2[C@@H]2CCO[C@H](C)C2)c(C)o1 [Example 230, 2-[(2,5-dimethyl-1,3-oxazol-4-yl)methyl]-1-[(2R,4R)-2-methyltetrahydro-2H-pyran-4-yl]-1H-imidazo[4,5-c]quinoline-8-carbonitrile, formate salt]
IC50 [1]: 11.6 nM
IC50 (mutant G2019S LRRK2): 8.48 nM

C[C@@H]1C[C@H](n2c(Cc3csnn3)nc3cnc4ccc(C#N)cc4c32)CCO1 [Example 195, 1-[(2R,4R)-2-methyltetrahydro-2H-pyran-4-yl]-2-(1,2,3-thiadiazol-4-ylmethyl)-1H-imidazo[4,5-c]quinoline-8-carbonitrile]
IC50 [1]: 3.46 nM
IC50 (mutant G2019S LRRK2): 2.28 nM

FCCn1c(Cc2cnccn2)nc2cnc3ccc(Cl)cc3c21 [Example 182, 8-chloro-1-(2-fluoroethyl)-2-(pyrazin-2-ylmethyl)-1H-imidazo[4,5-c]quinoline]
IC50 [1]: 67.4 nM

Cc1cnc(Cc2nc3cnc4ccc(C#N)cc4c3n2C2CCC(F)C2)cn1 (single isomer, unassigned; ent-2) [Example C89, 1-(cis-3-fluorocyclopentyl)-2-[(5-methylpyrazin-2-yl)methyl]-1H-imidazo[4,5-c]quinoline-8-carbonitrile, ENT-2]
IC50 [1]: 18.8 nM
IC50 (mutant G2019S LRRK2): 20.5 nM

C[C@@H]1C[C@H](n2c(Cc3cnns3)nc3cnc4ccc(Cl)cc4c32)CCO1 [Example 193, 8-chloro-1-[(2R,4R)-2-methyltetrahydro-2H-pyran-4-yl]-2-(1,2,3-thiadiazol-5-ylmethyl)-1H-imidazo[4,5-c]quinoline]
IC50 [1]: 37.3 nM
IC50 (mutant G2019S LRRK2): 32.6 nM

Cc1cc(Cc2nc3cnc4ccc(C#N)cc4c3n2C2CCOC(C)(C)C2)no1 (stereo not shown) [Example 239, 1-(2,2-dimethyltetrahydro-2H-pyran-4-yl)-2-[(5-methyl-1,2-oxazol-3-yl)methyl]-1H-imidazo[4,5-c]quinoline-8-carbonitrile, formate salt]
IC50 [1]: 9.74 nM
IC50 (mutant G2019S LRRK2): 10.8 nM

C[C@@H]1C[C@H](n2c(Cc3cn4ncsc4n3)nc3cnc4ccc(C#N)cc4c32)CCO1 [Example 149, 2-(imidazo[2,1-b][1,3,4]thiadiazol-6-ylmethyl)-1-[(2R,4R)-2-methyltetrahydro-2H-pyran-4-yl]-1H-imidazo[4,5-c]quinoline-8-carbonitrile]
IC50 [1]: 2.04 nM
IC50 (mutant G2019S LRRK2): 2.12 nM

Cc1cc(Cc2nc3cnc4ccc(Cl)cc4c3n2CCF)no1 [Example 181, 8-chloro-1-(2-fluoroethyl)-2-[(5-methyl-1,2-oxazol-3-yl)methyl]-1H-imidazo[4,5-c]quinoline]
IC50 [1]: 99.5 nM

CC(C)c1cn(Cc2nc3cnc4ccc(C#N)cc4c3n2[C@@H]2CCO[C@H](C)C2)nn1 [Example 126, 1-[(2R,4R)-2-methyltetrahydro-2H-pyran-4-yl]-2-{[4-(propan-2-yl)-1H-1,2,3-triazol-1-yl]methyl}-1H-imidazo[4,5-c]quinoline-8-carbonitrile, formate salt]
IC50 [1]: 8.39 nM
IC50 (mutant G2019S LRRK2): 8.04 nM

C[C@@H]1C[C@H](n2c(Cc3ccccn3)nc3cnc4ccc(C#N)cc4c32)CCO1 [Example 223, 1-[(2R,4R)-2-methyltetrahydro-2H-pyran-4-yl]-2-(pyridin-2-ylmethyl)-1H-imidazo[4,5-c]quinoline-8-carbonitrile]
IC50 [1]: 9.69 nM
IC50 (mutant G2019S LRRK2): 9.45 nM

CC1(C)CC(n2c(Cn3cnnn3)nc3cnc4ccc(Cl)cc4c32)CCO1 (stereo not shown) [Example 150, 8-chloro-1-(2,2-dimethyltetrahydro-2H-pyran-4-yl)-2-(1H-tetrazol-1-ylmethyl)-1H-imidazo[4,5-c]quinoline, formate salt]
IC50 [1]: 11.6 nM
IC50 (mutant G2019S LRRK2): 12.1 nM

Cc1cc(Cc2nc3cnc4ccc(C#N)cc4c3n2[C@@H]2CC[C@H](F)C2)on1 (single isomer, unassigned; ent-1) [Example 118, 1-(cis-3-fluorocyclopentyl)-2-[(3-methyl-1,2-oxazol-5-yl)methyl]-1H-imidazo[4,5-c]quinoline-8-carbonitrile, ENT-1]
IC50 [1]: 4.15 nM
IC50 (mutant G2019S LRRK2): 6.19 nM

Cc1cc(Cc2nc3cnc4ccc(C#N)cc4c3n2C2CCCC2(F)F)no1 (single isomer, unassigned; ent-1) [Example 143, 1-(2,2-difluorocyclopentyl)-2-[(5-methyl-1,2-oxazol-3-yl)methyl]-1H-imidazo[4,5-c]quinoline-8-carbonitrile, ENT-1]
IC50 [1]: 53.9 nM

C[C@@H]1C[C@H](n2c(Cc3nc(C4CC4)n(C)n3)nc3cnc4ccc(Cl)cc4c32)CCO1 [Example 191, 8-chloro-2-[(5-cyclopropyl-1-methyl-1H-1,2,4-triazol-3-yl)methyl]-1-[(2R,4R)-2-methyltetrahydro-2H-pyran-4-yl]-1H-imidazo[4,5-c]quinoline]
IC50 [1]: 73.5 nM

C[C@@H]1C[C@H](n2c(Cc3cn4c(n3)COCC4)nc3cnc4ccc(Cl)cc4c32)CCO1 [Example 192, 8-chloro-2-(5,6-dihydro-8H-imidazo[2,1-c][1,4]oxazin-2-ylmethyl)-1-[(2R,4R)-2-methyltetrahydro-2H-pyran-4-yl]-1H-imidazo[4,5-c]quinoline]
IC50 [1]: 12.6 nM

CCC(F)(F)Cn1c(Cc2noc(C)n2)nc2cnc3ccc(Cl)cc3c21 [Example 185, 8-chloro-1-(2,2-difluorobutyl)-2-[(5-methyl-1,2,4-oxadiazol-3-yl)methyl]-1H-imidazo[4,5-c]quinoline]
IC50 [1]: 73.2 nM

CO[C@H]1C[C@H](n2c(Cn3cc(C)nn3)nc3cnc4ccc(Cl)cc4c32)C1 [Example 188, 8-chloro-1-[(1r,3r)-3-methoxycyclobutyl]-2-[(4-methyl-1H-1,2,3-triazol-1-yl)methyl]-1H-imidazo[4,5-c]quinoline]
IC50 [1]: 110 nM
